Assay results taken from article PMC8253220, “Molecular design, synthesis and in vitro biological evaluation of thienopyrimidine–hydroxamic acids as chimeric kinase HDAC inhibitors: a challenging approach to combat cancer” (Journal of Enzyme Inhibition and Medicinal Chemistry, 2021).
Several values for one entry are separate records, joined by “and”; a condition that tells them apart may be missing. Identical values can stand only once.

Columns and labels:
Assay in all cases: NCI one-dose screen
Assay type in all cases: cell-based, human
[1] = test system: A549/ATCC; details: NSCLC A549/ATCC, 10 µM single dose
In short: (§1)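 At 10 μM, a single concentration, compounds were evaluated for antiproliferative effect in the NCI 60-line screen, with growth expressed relative to untreated control cells.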

[2] = test system: ACHN; details: Renal ACHN, 10 µM single dose
In short: as §1

[3] = test system: BT-549; details: Breast BT-549, 10 µM single dose
In short: as §1

[4] = test system: CAKI-1; details: Renal CAKI-1, 10 µM single dose
In short: as §1

[5] = test system: CCRF-CEM; details: Leukemia CCRF-CEM, 10 µM single dose
In short: as §1

[6] = test system: COLO 205; details: Colon COLO 205, 10 µM single dose
In short: as §1

[7] = test system: DU-145; details: Prostate DU-145, 10 µM single dose
In short: as §1

[8] = test system: EKVX; details: NSCLC EKVX, 10 µM single dose
In short: (§2)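 Single dose of 10 μM tested across the full NCI-60 cell panel. Values are percent growth inhibition relative to untreated control cells, following standard NCI methodology.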

[9] = test system: HCT-116; details: Colon HCT-116, 10 µM single dose
In short: as §1

[10] = test system: HL-60(TB); details: Leukemia HL-60(TB), 10 µM single dose
In short: as §1

[11] = test system: HOP-62; details: NSCLC HOP-62, 10 µM single dose
In short: (§3)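 One concentration (10 μM) applied to each line of the full NCI-60 panel; percent growth compared against untreated cells.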

[12] = test system: HS 578T; details: Breast HS 578T, 10 µM single dose
In short: as §1

[13] = test system: LOX IMVI; details: Melanoma LOX IMVI, 10 µM single dose
In short: as §1

[14] = test system: MALME-3M; details: Melanoma MALME-3M, 10 µM single dose
In short: as §1

[15] = test system: MCF7; details: Breast MCF7, 10 µM single dose
In short: (§4)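 Growth of treated cells is compared with untreated controls to give percent inhibition. Compounds are applied once at 10 μM across the NCI 60 cancer cell panel.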

[16] = test system: MDA-MB-231/ATCC; details: Breast MDA-MB-231/ATCC, 10 µM single dose
In short: as §1

[17] = test system: MOLT-4; details: Leukemia MOLT-4, 10 µM single dose
In short: as §4

[18] = test system: NCI-H226; details: NSCLC NCI-H226, 10 µM single dose
In short: as §2

[19] = test system: NCI-H322M; details: NSCLC NCI-H322M, 10 µM single dose
In short: as §1

[20] = test system: NCI-H460; details: NSCLC NCI-H460, 10 µM single dose
In short: as §1

[21] = test system: NCI-H522; details: NSCLC NCI-H522, 10 µM single dose
In short: as §2

[22] = test system: NCI/ADR-RES; details: Ovarian NCI/ADR-RES, 10 µM single dose
In short: as §1

[23] = test system: OVCAR-3; details: Ovarian OVCAR-3, 10 µM single dose
In short: as §1

[24] = test system: OVCAR-8; details: Ovarian OVCAR-8, 10 µM single dose
In short: as §1

[25] = test system: PC-3; details: Prostate PC-3, 10 µM single dose
In short: as §3

[26] = test system: RXF 393; details: Renal RXF 393, 10 µM single dose
In short: as §1

[27] = test system: SF-268; details: CNS SF-268, 10 µM single dose
In short: as §4

[28] = test system: SF-295; details: CNS SF-295, 10 µM single dose
In short: as §1

[29] = test system: SF-539; details: CNS SF-539, 10 µM single dose
In short: as §4

[30] = test system: SK-MEL-28; details: Melanoma SK-MEL-28, 10 µM single dose
In short: as §3

[31] = test system: SN12C; details: Renal SN12C, 10 µM single dose
In short: as §1

[32] = test system: SNB-19; details: CNS SNB-19, 10 µM single dose
In short: as §3

[33] = test system: SR; details: Leukemia SR, 10 µM single dose
In short: as §1

[34] = test system: SW-620; details: Colon SW-620, 10 µM single dose
In short: as §3

[35] = test system: TK-10; details: Renal TK-10, 10 µM single dose
In short: as §1

[36] = test system: U251; details: CNS U251, 10 µM single dose
In short: as §2

[37] = test system: UACC-62; details: Melanoma UACC-62, 10 µM single dose
In short: as §1

Cc1c(C(=O)NCCC(=O)NO)sc2ncnc(Nc3ccc(NC(=O)Nc4cccc(C(F)(F)F)c4)cc3)c12 [Compound 11c, 1–(4-(6-((3-(hydroxyamino)-3-oxopropyl)carbamoyl)-5-methylthieno[2,3-d]pyrimidin-4-ylamino)phenyl)-3–(3-(trifluoromethyl)phenyl)urea]
Growth Percent [1]: 103.7% and 103.74%
Growth Percent [2]: 101.7% and 101.74%
Growth Percent [3]: 137.1% and 137.18%
Growth Percent [4]: 99.3% and 99.31%
Growth Percent [5]: 98.8% and 98.82%
Growth Percent [6]: 112.9%
Growth Percent [7]: 105.3% and 105.34%
Growth Percent [8]: 90.7% and 90.76%
Growth Percent [9]: 107.9% and 107.91%
Growth Percent [10]: 105.0% and 105.04%
Growth Percent [11]: 101.7%
Growth Percent [12]: 93.51%
Growth Percent [13]: 94.5% and 94.53%
Growth Percent [14]: 112.1% and 112.11%
Growth Percent [15]: 89.2% and 89.23%
Growth Percent [16]: 105.2% and 105.25%
Growth Percent [17]: 105.7% and 105.79%
Growth Percent [18]: 97.9%
Growth Percent [19]: 103.7% and 103.74%
Growth Percent [20]: 99.4% and 99.41%
Growth Percent [21]: 94.3% and 94.36%
Growth Percent [22]: 103.1% and 103.18%
Growth Percent [23]: 111.6%
Growth Percent [24]: 102.2% and 102.23%
Growth Percent [25]: 100.2% and 100.24%
Growth Percent [26]: 103.8% and 103.88%
Growth Percent [27]: 93.3% and 93.37%
Growth Percent [28]: 91.8% and 91.82%
Growth Percent [29]: 78.9% and 78.96%
Growth Percent [30]: 109.7% and 109.72%
Growth Percent [31]: 100.0% and 100.06%
Growth Percent [32]: 93.6% and 93.62%
Growth Percent [33]: 101.0% and 101.07%
Growth Percent [34]: 104.3% and 104.35%
Growth Percent [35]: 140.4% and 140.42%
Growth Percent [36]: 80.2% and 80.22%
Growth Percent [37]: 99.6% and 99.62%
